Test results published in patent publication US9624169B2, “Aryl- and heteroaryl-pyrrolidine-2-carboxamide compounds” (SciFluor Life Sciences, Inc., priority 2015, dated 2017).

Test system: formalin induced pain
Assay: Formalin induced pain model in rats (flinching, lifting, licking, biting and trembling of injected paw)
Details: for Effect on the flinching response (in words): at tested dose levels; for Effect on duration of paw lifting post-formalin injection (in words): all dose levels; for Effect on all testing behaviors (lifting, licking, biting and trembling) post-formalin injection (in words): all tested dose levels
[1] = Phase 1, group 4, 3 mg/ml (Table 2: 3 mg/kg P.O.)
[2] = Phase 1, group 5, 10 mg/ml (Table 2: 10 mg/kg P.O.)
[3] = Phase 1, group 6, 30 mg/ml (Table 2: 30 mg/kg P.O.)
[4] = Phase 2, group 4, 3 mg/ml (Table 2: 3 mg/kg P.O.)
[5] = Phase 2, group 5, 10 mg/ml (Table 2: 10 mg/kg P.O.)
[6] = Phase 2, group 6, 30 mg/ml (Table 2: 30 mg/kg P.O.)
[7] = phase 1, control compounds, Compound 1A at 3 mg/kg
[8] = Phase 1, group 3, 100 mg/ml (Table 2: 100 mg/kg P.O.)
[9] = Phase 2, group 3, 100 mg/ml (Table 2: 100 mg/kg P.O.)
[10] = Phase 1, group 2, 1 mg/ml (Table 2: 1 mg/kg I.P.)
[11] = Phase 2, group 2, 1 mg/ml (Table 2: 1 mg/kg I.P.)

## NC(=O)[C@@H]1CC[C@H](c2ccc(OC(c3ccccc3F)C(F)(F)F)cc2)N1 (stereo partly drawn) [Compound 1A, (2S,5R)-5-(4-(2,2,2-trifluoro-1-(2-fluorophenyl)ethoxy)phenyl)pyrrolidine-2-carboxamide]
[1]
  Group Mean of Average Duration of Licking, Biting and Trembling: 34.2 ± 26.8 No. per 5 min
  Group Mean of Average Duration of Lifting: 37.1 ± 43.8 No. per 5 min
  Group Mean of Average Flinching Response: 15.2 ± 11.3 No. per 5 min
  Group Mean of Total Testing Behavior: 71.3 ± 56.4 No. per 5 min
[2]
  Group Mean of Average Duration of Licking, Biting and Trembling: 21.9 ± 25.1 No. per 5 min
  Group Mean of Average Duration of Lifting: 17.3 ± 22.8 No. per 5 min
  Group Mean of Average Flinching Response: 10.5 ± 3.7 No. per 5 min
  Group Mean of Total Testing Behavior: 39.2 ± 27.5 No. per 5 min
[3]
  Group Mean of Average Duration of Licking, Biting and Trembling: 17.4 ± 13.0 No. per 5 min
  Group Mean of Average Duration of Lifting: 21.3 ± 25.2 No. per 5 min
  Group Mean of Average Flinching Response: 22.0 ± 7.7 No. per 5 min
  Group Mean of Total Testing Behavior: 38.7 ± 31.8 No. per 5 min
[4]
  Group Mean of Average Duration of Licking, Biting and Trembling: 32.6 ± 27.6 No. per 5 min
  Group Mean of Average Duration of Lifting: 8.2 ± 10.4 No. per 5 min
  Group Mean of Average Flinching Response: 16.0 ± 10.2 No. per 5 min
  Group Mean of Total Testing Behavior: 40.8 ± 34.3 No. per 5 min
[5]
  Group Mean of Average Duration of Licking, Biting and Trembling: 20.7 ± 10.5 No. per 5 min
  Group Mean of Average Duration of Lifting: 5.1 ± 6.2 No. per 5 min
  Group Mean of Average Flinching Response: 16.6 ± 7.3 No. per 5 min
  Group Mean of Total Testing Behavior: 25.8 ± 15.1 No. per 5 min
[6]
  Group Mean of Average Duration of Licking, Biting and Trembling: 22.9 ± 14.5 No. per 5 min
  Group Mean of Average Duration of Lifting: 6.1 ± 6.7 No. per 5 min
  Group Mean of Average Flinching Response: 22.3 ± 12.5 No. per 5 min
  Group Mean of Total Testing Behavior: 29.0 ± 16.4 No. per 5 min
  Effect on the flinching response (in words): no effect
Phase 1
  Effect on duration of paw lifting post-formalin injection (in words): no effects
  Effect on all testing behaviors (lifting, licking, biting and trembling) post-formalin injection (in words): no any effects
[7]
  Effect on duration of licking, biting and trembling post-formalin injection (in words): neither the control compounds (morphine and gabapentin) nor Compound 1A (at 3 mg/kg) had any effects
Phase 2
  Effect on duration of paw lifting post-formalin injection (in words): significant effect on inhibiting
  Effect on all testing behaviors (lifting, licking, biting and trembling) post-formalin injection (in words): significantly reduced
Phase 2 observation period, especially at 10 mg/kg and 30 mg/kg
  Overall effect post formalin-induced pains (in words): anti-nociceptive effects
rat, in vivo
  Activity in the formalin pain model (in words): active

## NCC1(CC(=O)O)CCCCC1 [Gabapentin, reference compound]
[8]
  Group Mean of Average Duration of Licking, Biting and Trembling: 26.9 ± 14.7 No. per 5 min
  Group Mean of Average Duration of Lifting: 39.8 ± 41.5 No. per 5 min
  Group Mean of Average Flinching Response: 11.5 ± 5.7 No. per 5 min
  Group Mean of Total Testing Behavior: 66.6 ± 34.8 No. per 5 min
[9]
  Group Mean of Average Duration of Licking, Biting and Trembling: 17.1 ± 9.1 No. per 5 min
  Group Mean of Average Duration of Lifting: 20.7 ± 23.2 No. per 5 min
  Group Mean of Average Flinching Response: 16.0 ± 13.3 No. per 5 min
  Group Mean of Total Testing Behavior: 37.8 ± 23.7 No. per 5 min
  Effect on the flinching response (in words): no effect
Control compounds
  Overall effect of control compounds on formalin induced pain model (in words): consistent effect of inhibiting nociceptive pain
Phase 1
  Effect on duration of paw lifting post-formalin injection (in words): no effects
  Effect on all testing behaviors (lifting, licking, biting and trembling) post-formalin injection (in words): no any effects
[7]
  Effect on duration of licking, biting and trembling post-formalin injection (in words): neither the control compounds (morphine and gabapentin) nor Compound 1A (at 3 mg/kg) had any effects
Phase 2, 100 mg/kg
  Effect on duration of licking, biting and trembling post-formalin injection (in words): significantly decreased
Phase 2
  Effect on duration of paw lifting post-formalin injection (in words): significant effect on inhibiting
  Effect on all testing behaviors (lifting, licking, biting and trembling) post-formalin injection (in words): significantly reduced

## CN1CC[C@]23c4c5ccc(O)c4O[C@H]2[C@@H](O)C=C[C@H]3[C@H]1C5 [morphine, reference compound]
[10]
  Group Mean of Average Duration of Licking, Biting and Trembling: 20.5 ± 13.1 No. per 5 min
  Group Mean of Average Duration of Lifting: 37.8 ± 27.7 No. per 5 min
  Group Mean of Average Flinching Response: 10.8 ± 7.7 No. per 5 min
  Group Mean of Total Testing Behavior: 58.3 ± 37.7 No. per 5 min
[11]
  Group Mean of Average Duration of Licking, Biting and Trembling: 12.1 ± 7.2 No. per 5 min
  Group Mean of Average Duration of Lifting: 3.2 ± 4.4 No. per 5 min
  Group Mean of Average Flinching Response: 12.3 ± 6.9 No. per 5 min
  Group Mean of Total Testing Behavior: 15.3 ± 9.0 No. per 5 min
  Effect on the flinching response (in words): no effect
Control compounds
  Overall effect of control compounds on formalin induced pain model (in words): consistent effect of inhibiting nociceptive pain
Phase 1
  Effect on duration of paw lifting post-formalin injection (in words): no effects
  Effect on all testing behaviors (lifting, licking, biting and trembling) post-formalin injection (in words): no any effects
[7]
  Effect on duration of licking, biting and trembling post-formalin injection (in words): neither the control compounds (morphine and gabapentin) nor Compound 1A (at 3 mg/kg) had any effects
Phase 2, 1 mg/kg
  Effect on duration of licking, biting and trembling post-formalin injection (in words): significantly decreased
Phase 2
  Effect on duration of paw lifting post-formalin injection (in words): significant effect on inhibiting
  Effect on all testing behaviors (lifting, licking, biting and trembling) post-formalin injection (in words): significantly reduced
